Values after ≈ are worked out from the molar mass of the structure shown. Like-named read-outs stand apart in the source and are kept apart here.
Assays:
FaSSIF solubility assay = assay type: physicochemical; settings: pH 6.5, 4 h
Description: Solubility of test compounds in fasted simulated intestinal fluid (FaSSIF) was determined at pH 6.5 after 4 h equilibration at rt. An amount of1 mL of FaSSIF buffer (3 mM sodium taurocholate, 0.75 mM lecithin in sodium phosphate buffer at pH 6.5) was added to manually weighed 1 mg of solid compound in a 2 mL HPLC autosampler vial. The resulting suspension was shaken at 900 rpm for 4 h at rt and then transferred to a Multiscreen HTS, 96-well solubility filter plate. The residual solid was removed by filtration. The supernatant solution was quantified by HPLC−UV using single-point calibration of a known concentration of the compound in DMSO. The dynamic range of the assay was 1−1000 μg/mL.

[1] = intrinsic clearance in mouse liver microsomes; assay type: in vitro ADME; settings: for half-life at 0.5 μM: male, CD-1, read-out: T 1/2 mouse
Description: Immediately at time zero and at several serial times points up to 30 min, an aliquot of the incubation mixture was removed and mixed with acetonitrile to stop the reaction. Internal standard was added to all samples, the samples centrifuged to sediment precipitated protein and the plates then sealed prior to HPLC-MS/MS analysis. Metabolic stability expressed as a percentage of the parent molecule was calculated using the peak area ratio (compound peak area/internal standard peak area) of different compounds remaining after each incubation time compared to time zero of the incubation. The half-life (t1/2) was calculated using the following equation: t1/2=−ln(2)/k, where k is the turn-over rate constant of the ln (percent remaining) vs time regression.
CLint was calculated from the half-life (t1/2) using the following equations:
CLint (ml/min/g liver) = (0.693/(t1/2) x (ml of incubation/mg microsomal protein) x (mg microsomal protein/g liver).

[2] = chromatographic LogD assay; assay type: physicochemical; settings: reversed phase HPLC column (Gemini NX C18), pH 7.4; read-out: Chrom logD pH 7.4
Description: The chromatographic hydrophobicity index (CHI) values were measured using reversed phase HPLC column (50 mm × 2 mm, 3 μm Gemini NX C18, Phenomenex, U.K.) with fast acetonitrile gradient at starting mobile phase at pH 7.4. CHI values were derived directly from the gradient retention times by using a calibration line obtained for standard compounds. The CHI value approximates to the volume % organic concentration when the compound elutes. CHI was linearly transformed into ChromlogD by least-squares fitting of experimental CHI values to calculated log P (ClogP) values for over 20K research compounds using the following formula: ChromlogD = 0.0857CHI − 2.00. The average error of the assay is ±3 CHI units or ± 0.25 ChromlogD.

[3] = system: intracellular T. cruzi Silvio X10/7 A1 in Vero cells; experiment: washout outgrowth assay; assay type: cell-based, Trypanosoma cruzi; settings: for relapse day after the end of treatment: 50× EC50 for five days
Description: Washout outgrowth assay: Vero cells were infected overnight in T600 flasks at a multiplicity of infection (MOI) 5 with T. cruzi Silvio X10/7 A1 trypomastigotes, followed by washing of the Vero monolayer to remove free trypomastigotes. 24 hours later the monolayer was trypsinised, 5.3 x 10^6 Vero cells were plated in T75 tissue culture flasks (in 20 ml MEM-Glutamax (ThermoFisher), 1% Fetal Calf Serum (FCS)), and treatment was started. For ten-day treatments, medium with compounds was replaced after the initial 5 days. For 16 day treatments the compounds were replaced every four days. For compound washout, all medium was aspirated, and flasks were washed three times with 10 ml serum-free MEM medium followed by a final aspiration and addition of 20 ml MEM-Glutamax (ThermoFisher) supplemented with 1% FCS. The cultures were then maintained until trypomastigotes were detected by light microscopy. Medium was replaced twice weekly and prior to each medium replacement microscopic evaluation was carried out (five fields per flask) for up to 60 days post washout. Robustness of the data was confirmed by profiling multiple compounds from the pyrrolopyrimidine series in a single experiment (compounds 2,3 and 4 in Fig. 2 and Fig. S17) as well as comparing results from independent experiments (compound 2 in Fig. 2, Fig. S5 and Fig. S7).

HepG2 cells = experiment: general cytotoxicity assay in HepG2 cells; assay type: cell-based; settings: Homo sapiens, HepG2, 48 h, CellTiter-Glo
Description: This assay was previously described ([36]). Briefly, actively growing HepG2 cells were removed from a T-175 TC flask using 5 ml Eagle’s MEM (containing 10 % FBS, 1 % NEAA, 1 % penicillin/ streptomycin. Carbon source is D-glucose at 1 g/l) and dispersed in the medium by repeated pipetting. Seeding density was checked to ensure that new monolayers were not more than 50 % confluent at the time of harvesting. Cell suspension was added to 500 ml of the same medium at a final density of 1.2 x 10^5 cells/ml. This cell suspension was dispensed (25 μl, 3000 cells per well) into 384-well clear-bottom plates using a Multidrop Combi dispenser. Prior to addition of the cell suspension, the screening compounds (250 nl) were predispensed into the plates with an EchoH liquid handler. Plates were incubated for 48 h at 37°C, 5% CO2. After incubation, plates equilibrated at room temperature for 30 min before proceeding to develop the luminescent signal. The signal developer, CellTiter-Glo Reagent, was allowed to equilibrate at room temperature for 30 min and added to the plates ([…]) using a Multidrop Combi dispenser. Plates were left for 10 min at room temperature for stabilization and then read using a ViewLux.

[4] = kinetic aqueous solubility (CLND); assay type: physicochemical; settings: phosphate buffered saline, aqueous buffer, kinetic from dmso stock, pH 7.4
Description: The eluent is quantified by suitably calibrated flow injection CLND. This assay has a dynamic range between the lower detection limit of 1 and 500 μM, governed by the protocol’s 1:20 dilution into pH 7.4 phosphate buffer solution from nominal 10 mM DMSO stock.

Property Forecast Index = assay type: physicochemical; settings: number of aromatic rings + ChromLogD at pH 7.4
[5] = system: intracellular T. cruzi amastigotes, strain Silvio X10/7 A1; experiment: intracellular T. cruzi amastigote potency assay; assay type: cell-based; settings: Trypanosoma cruzi
[6] = read-out: HepG2 pEC50 (converted)
[7] = intracellular amastigotes Silvio X10/7 A1, 96 h, ± SD, min. three experiments, read-out: Amastigotes pEC50 (converted)

## COc1cc(Cl)ccc1-c1c(C)[nH]c2nc(N)nc(C)c12 [Compound 3, 5-(4-Chloro-2-methoxyphenyl)-4,6-dimethyl-7H-pyrrolo[2,3-d]pyrimidin-2-amine]
FaSSIF solubility assay
  FaSSIF pH 6.5: 76 µg/mL
[1]
  Cl int mouse: 1.4 ml/min/g liver
  half-life at 0.5 μM: 48 min
[2]
  chromatographic logD: 4.2
[3]
  relapse day after the end of treatment: 14 days
HepG2 cells; read-out: HepG2 EC50
  EC50: 79000 nM
HepG2 cells; [6]
  EC50: 79400 nM
[4]
  solubility at 1 h: 103 µg/mL (≈ 340 µM)
Property Forecast Index
  PFI: 7.2
[5]; [7]
  EC50: 10 nM
[5]; read-out: Amastigotes EC50
  EC50: 10 nM

## O=C(Cn1ccnc1[N+](=O)[O-])NCc1ccccc1 [Benznidazole, reference compound]
[2]
  chromatographic logD: 2.3
[3]
  relapse day after the end of treatment: 14 days
[3]; ten-day treatment
  relapse day after compound washout: no relapse
HepG2 cells; read-out: HepG2 EC50
  EC50: > 100000 nM
HepG2 cells; [6]
  EC50: > 100000 nM
[4]
  solubility at 1 h: 77 µg/mL (≈ 296 µM)
Property Forecast Index
  PFI: 4.3
[5]; [7]
  EC50: 2000 nM
[5]; read-out: Amastigotes EC50
  EC50: 2000 nM

## COc1ccc(-c2c(C)[nH]c3nc(N)nc(C)c23)c(OC)c1 [Compound 4, 5-(2,4-Dimethoxyphenyl)-4,6-dimethyl-7H-pyrrolo[2,3-d]pyrimidin-2-amine]
FaSSIF solubility assay
  FaSSIF pH 6.5: 107 µg/mL
[1]
  Cl int mouse: 2.0 ml/min/g liver
  half-life at 0.5 μM: 33 min
[2]
  chromatographic logD: 3.1
HepG2 cells; read-out: HepG2 EC50
  EC50: 79000 nM
HepG2 cells; [6]
  EC50: 79400 nM
[4]
  solubility at 1 h: 137 µg/mL (≈ 459 µM)
Property Forecast Index
  PFI: 6.1
[5]; [7]
  EC50: 79.4 nM
[5]; read-out: Amastigotes EC50
  EC50: 80 nM

## COc1cc(F)ccc1-c1c(C)[nH]c2nc(N)nc(C)c12 [Compound 2, 5-(4-Fluoro-2-methoxyphenyl)-4,6-dimethyl-7H-pyrrolo[2,3-d]pyrimidin-2-amine]
FaSSIF solubility assay
  FaSSIF pH 6.5: 153 µg/mL
[1]
  Cl int mouse: 1.3 ml/min/g liver
  half-life at 0.5 μM: 52 min
[2]
  chromatographic logD: 3.4
[3]
  relapse day after the end of treatment: 14 days
HepG2 cells; read-out: HepG2 EC50
  EC50: 79000 nM
HepG2 cells; [6]
  EC50: 63100 nM
[4]
  solubility at 1 h: 117 µg/mL (≈ 409 µM)
Property Forecast Index
  PFI: 6.4
[5]; [7]
  EC50: 50.1 nM
[5]; read-out: Amastigotes EC50
  EC50: 50 nM

— article PMC7615676, “Short-course combination treatment for experimental chronic Chagas disease” (Science translational medicine, 2023)
